16 molecules from patent US20050069999A1, “Sh3 domain binding inhibitors” (priority 2001, published 2005) can be followed below.

Data set [1] has as its target T1, Sam68ΔC and Fyn-SH3 binding (Homo sapiens, UniProt Q07666).
T1 construct: (Sam68ΔC) [Sam68(331-443): made by Santa Cruz Co.]; purchased Santa Cruz Sam68(331-443); Fyn(85-139) AC
Kind of data set: SH3 domain binding inhibition test 1: Sam68ΔC bound to Fyn-SH3 beads, Western blot; inhibition ratio from band intensity (Test Examples 1 and 4). Set-up: species or system recombinant human Sam68ΔC; mouse recombinant Fyn SH3 domain. The conditions noted are these: for inhibition at 60 µM / inhibition at 150 µM: read-out: The inhibition ratio (%) of the compound against SH3 domain binding. The procedure: (1) Treatment of Proteins Containing the Proline-Rich Sequences with the Compounds.
The recombinant human Sam68 containing the 2 proline-rich sequences at the C terminal out of 5 proline-rich sequences in Sam68 containing proline-rich sequences (Sam68ΔC) [Sam68(331-443): made by Santa Cruz Co.], 0.25 μg was added to 1 mL of RSB buffer (10 mmol/L Tris-HCl, pH 7.6, 10 mmol/L NaCl, 1.5 mmol/L MgCl2), which is a hypotonic buffer solution containing 0.1% BSA (bovine serum albumin) [bovine serum albumin (F-V): made by Nakaraitesk] to prepare a Sam68ΔC solution. The compound was dissolved in dimethylsulfoxide (DMSO) to prepare a 10 mmol/L solution in DMSO. […] The same amount of DMSO was added to each sample. The compound was subjected to the reaction with Sam68ΔC by incubating the mixture at 37° C. for 6 hours with rotation by a roller culture machine.
(2) Treatment of Proteins Containing the SH3 Domain with the Proteins Containing the Proline-Rich Sequences Treated with the Compounds.
The Sam68ΔC solution treated with the compound, which was obtained in (1), was applied to 5 μL of Fyn-SH3-agarose beads (Fyn-SH3 beads) [Fyn(85-139) AC; made by Santa Crutz Co.], which was a mouse recombinant protein of the Fyn SH3 domain containing the SH3 domain bound to agarose beads. The binding reaction of the Sam68ΔC reacted with the compounds with Fyn-SH3 beads containing the SH3 domain were carried out at 4° C. for 16 hours with slow rotation by the roller culture machine. After the reaction, a resulting complex of Sam68ΔC and Fyn-SH3 beads was precipitated by centrifugation at […] for 3 minutes at 4° C., and then 1 mL of the TritonX/Np40 extraction buffer containing detergents [50 mmol/L Tris-HCl buffer, pH 7.4, 150 mmol/L NaCl, 1 mmol/Lethylenediaminetetraacetic acid (EDTA), 1% TritonX-100, 0.5% Nonidet P-40] was added thereto. The mixture was rotated slowly at 4° C. for 10 minutes by the roller culture machine, and precipitated and washed twice in a similar manner to that as described above. To the complex of Sam68ΔC and Fyn-SH3 beads washed above, 30 μL of Lemery's sample buffer [Protein Chemistry I-Isolation and Purification, Tokyo Kagaku Dojin, p. 211 (1976)] was added, and then the mixture was mixed well and heated at 100° C. for 10 minutes. After precipitating the beads at 1000 ppm for 5 minutes at 25° C. by a centrifuge, the supernatant was subjected to 10% polyacrylamide gel electrophoresis.
(3) Detection of Sam68ΔC Bound to the Fyn-SH3 by Western Blotting.
Sam68ΔC in the supernatant was detected by Western blotting as follows. First, the resulting gel performed the electrophoresis, which was obtained in (2), was blotted onto a nitrocellulose membrane with pore size of 0.45 μm [Protran; made by Schleicher and Schuell Co.]. After non-specific binding of the membrane was blocked by incubating the membrane at 4° C. overnight in phosphate buffer (PBS) containing 0.25% gelatin and 0.2% Tween-20 (PBS-TG), the membrane reacted with mouse anti GST antibody conjugated with horse radish peroxidase (HRP) [GST (B-14) HRP; made by Santa Crutz Co.], which was diluted 1000 times with PBS-TG, for 2 hours. After washing with PBS containing 0.2% Tween 20 (PBS-T), the detection was carried out by the chemo-luminescence reaction using ECL reagent (Amersham Pharmacia Biotech Co.).
The inhibition ratios of the compound against the SH3 domain binding were calculated as follows based on the plot of the results of the Test Example 1. The intensity of the chemo-luminescent bands of Fyn-SH3 and Sam68ΔC developed on a film was measured by a gel-scanner (TYOBO). The relative intensity of Sam68ΔC band against the intensity of Fyn-SH3 band was obtained by dividing the Sam68ΔC band intensity by the Fyn-SH3 band intensity. The ratio of the Fyn-SH3 band intensity to the Sam68ΔC band intensity was set to be 100% when no compound was added. […]
(In general: In western blotting, separated proteins are transferred to a membrane and probed.)

For data set [2], the system named is HIV-1 LAI strain. Kind of data set: HIV-1 growth inhibition test (RT assay) in MT2 cells. The format is cell-based. The conditions noted are these: MT2 cells, 3, 5, 7 and 9 days after infection; 1, 5, 10, 25 and 50 mmol/L as printed; FIGS. 9-11 Compound 1, FIGS. 12-14 PP2. The procedure: (1) HIV-1 Infection and Growth Inhibition Experiment.
MT2 cells (T cell strain) were suspended in RPMI1640 medium (GIBCO No.26140-076) supplemented with 10% fetal calf serum (GIBCO, No.26140-079) at 2×10^5 cells/mL and distributed into the each well of 24 well plates (24 well plate: Coster No. 3526) by 1 mL per well. HIV-1 LAI strain {pLAI that contains DNA clone of the whole genome [GeneBank accession No. K02013 Virology 185:661 (1991)] was transfected to HeLa cells by using FuGENE6 Transfection Reagent (Roche Co. No. 1814443), incubated for 2 days and the supernatant was used.} was inoculated to each well at a final concentration of 500 cpm/μL and incubated at 37° C. overnight (virus infection). […]
HIV-1 was determined by the RT assay (Reverse Transcriptase sassy) according to the method described in J. Virol., Vol. 38, p. […]
To 5 μL of the culture supernatant obtained in (1), 25 μL of RT cocktail {50 mmol/L Tris-HCl pH 7.5, 50 mmol/L EDTA, 75 mmol/L KCl, 5 mmol/L MgCl2, 5 μg/mL Poly(A) [Pharmacia, No. 27-4110-01], 1.6 μg/mL oligo(dT)12-18 [Pharmacia, No. 27-7858-01], 5 mmol/L DTT (dithiothreitol), 0.05% NP-40 and 10 PCi/ml [α-^32P]dTTP} was added, and the mixture was incubated at 37° C. for 2 hours. […] The amount of HIV-1 was measured as RT activity count (cpm/μL) with a MICROBRTA PLUS liquid scintillation counter (Perkin Elmer). […]

The subject of data set [3] is MT2 cells. Description: Cyto-toxicity test, Trypan blue live cell count. It is filed as cell-based. The conditions noted are these: 10 μmol/L, incubated for 3 days. The method, then: MT2 cells (T cell strain) were suspended in RPMI1640 medium (GIBCO, No. 26140-076) supplemented with 10% fetal calf serum (GIBCO, No. 26140-079) at 2×10^5 cells/mL and distributed into each well of 96 well plates [96 well plate: Coster] at 100 μL per well. The compound was added to each well and incubated for 3 days. The cultures were observed under a microscope to examine the condition of cells and cells were harvested, stained with 0.4% Trypan blue (SIGMA, T-8154) and live cells were counted.

[4] abbreviates: Concentration of the compound 60 μmol/L.
[5] abbreviates: Concentration of the compound 150 μmol/L.
Where [6] appears, read: Concentration of the compound 20 μmol/L.
Where [7] appears, read: Concentration of the compound 100 μmol/L.

T1 sequence (Q07666 331-443, stated change not applied): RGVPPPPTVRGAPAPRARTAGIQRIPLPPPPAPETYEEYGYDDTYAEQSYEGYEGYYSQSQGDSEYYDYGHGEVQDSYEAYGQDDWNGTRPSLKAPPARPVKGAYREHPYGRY

Turning to `CC1=CC2/C=C(\C)CCC(O)C(O)/C=C/C(=O)C23C(=O)NC(CC(C)C)C3C1C` (stereo not drawn) [Compound 27, Aspochalasin D], the “The inhibition ratio (%) of the compound against SH3 domain binding” value (from here on “The inhibition ratio (%) of the compound”) in data set [1] (setting [4]) and in data set [1] (setting [5]) was 100% each time.
As for `CC1=CC(/C=C(\C)CCC=O)C2(C(=O)/C=C/C=O)C(=O)NC(CC(C)C)C2C1C` (stereo not drawn) [Compound 22], the inhibition at 60 µM in data set [1] (setting [4]) stood at 91%. Moreover, the inhibition at 150 µM in data set [1] (setting [5]) turned out to be 100%.
Take `C=C1C(C)C2C(Cc3ccc(OC)cc3)NC(=O)C23OC(=O)O/C=C/C(C)(O)C(=O)C(C)C/C=C/C3C1O` (stereo not drawn) [Compound 18]: the inhibition at 60 µM in data set [1] (setting [4]) stood at 16%. Also, the inhibition at 150 µM in data set [1] (setting [5]) was determined as 67%.
For the molecule `CC1=CC2/C=C(\C)CCC(O)C(O)/C=C/C(=O)C23C(=O)NC(CC(C)C)C3C1C` (stereo not drawn) [Compound 26, Aspochalasin C], the inhibition at 60 µM in data set [1] (setting [4]) came to 92%. The inhibition at 150 µM in data set [1] (setting [5]) stood at 100%.
In the same order, the values of `CC1=CC2/C=C(\C)CCC(O)C(=O)/C=C/C(=O)C23C(=O)NC(CC(C)C)C3C1C` (stereo not drawn) [Compound 25, Aspochalasin B] are 87% and 100%.
Consider `COc1ccc(CC2NC(=O)C34OC(=O)O/C=C/C(C)(O)C(=O)C(C)C/C=C/C3C(O)C(C)=C(C)C24)cc1` (stereo not drawn) [Compound 19], for which, in data set [1] (setting [5]), the inhibition at 150 µM came out at 40%.
In the case of `CC1=CC2/C=C(\C)CCCC(O)/C=C/C(=O)OC23C(=O)NC(CC(C)C)C3C1C` (stereo not drawn) [Compound 21], the inhibition at 60 µM in data set [1] (setting [4]) amounted to 64%. Further, the inhibition at 150 µM in data set [1] (setting [5]) came to 100%.
In the same order, the values of `CC1=CC2/C=C(\C)CCC(O)C(O)C(O)CC(=O)C23C(=O)NC(CC(C)C)C3C1C` (stereo not drawn) [Compound 28, Aspochalasin E] are 31% and 73%.
Turning to `CC1=CC2/C=C(\C)CCC(=O)C(=O)CCC(=O)C23C(=O)NC(CC(C)C)C3C1C` (stereo not drawn) [Compound 24, Aspochalasin A], the inhibition at 60 µM in data set [1] (setting [4]) came to 62%. Further, the inhibition at 150 µM in data set [1] (setting [5]) came to 80%.
For the molecule `C/C1=C\CC(=O)OC23C(=O)NC(Cc4ccc(O)cc4)C2C(C)C2(C)OC2C3/C=C/CC(C)C1=O` (stereo not drawn) [Compound 16], the inhibition at 60 µM in data set [1] (setting [4]) came out at 67%. Further, the inhibition at 150 µM in data set [1] (setting [5]) is 78%.
Consider `CC(C)(C)n1nc(-c2ccc(Cl)cc2)c2c(N)ncnc21` [pp2, 4-amino-5-(4-chrolophenyl)-7-(tert-butyl)-pyrazolo[3,4-d]pyrimidine], for which the “amount of HIV-1 (RT activity count)” value in data set [2] is given as “increased”.
On to `CC1=CC2/C=C(\C)CCC(O)C(O)/C=C/C(=O)OC23C(=O)NC(CC(C)C)C3C1C` (stereo not drawn) [Compound 20], for which the inhibition at 60 µM in data set [1] (setting [4]) was 92%. Also, the inhibition at 150 µM in data set [1] (setting [5]) was 100%.
On to Mer-WF1726 [Compound 12], for which the “The inhibition ratio (%) of the compound” value is 39% in data set [1] (setting [6]) and 88% in data set [1] (setting [7]).
On to `COc1ccc(CC2NC(=O)C34OC(=O)OCCC(C)(O)C(=O)C(C)C/C=C/C3C3OC3(C)C(C)C24)cc1` (stereo not drawn) [Compound 17], for which the inhibition at 150 µM in data set [1] (setting [5]) was found to be 36%.
UCS15A [Compound 1]: the entries for the “The inhibition ratio (%) of the compound” value in data set [1] (setting [4]) and in data set [1] (setting [5]) were 0% and 46%, respectively. The “live cells (Trypan blue)” value in data set [3] was “live cells were not decreased”.
In the case of `C[C@H]1C/C=C/[C@H]2[C@@H]3O[C@]3(C)[C@@H](C)[C@H]3[C@H](Cc4ccccc4)NC(=O)[C@]32OC(=O)O/C=C/[C@@](C)(O)C1=O` [Compound 13, Cytochalasin E], the figures for the “The inhibition ratio (%) of the compound” value in data set [1] (setting [6]) and in data set [1] (setting [7]) were 0% and 21%, respectively.
